In patent US20240287430A1, “Systems and Methods for Cellular Lumen Formation and Cellular Differentiation” (The Regents of the University of California, priority 2021, published 2024):

Tests used:
[1] = tested on: hPSC-derived neural tube (neural folding morphogenesis); assay: Modeling neural tube defects in the stem-cell derived neural tube morphogenesis system; type: cell-based, human; conditions: for neural apical curvature / neural tissue morphology (thickness, hinges): treated samples vs control samples, ROCK inhibitor 10 μM day 5-8
Description: Because animal models are limited in their capacity to explain how human genetics affects neural tube closure, it was tested whether the reproducible human stem-cell system could be used to model neural tube defects (NTDs). This example focuses on various compounds that induce NTDs: ROCK inhibitor, novobiocin, and valproic acid (FIG. 24). […] In turn, ROCK upregulates apical actomyosin contractility in neural cells which leads to apical constriction of the neural plate. Neural plate contraction then drives neural folding. It was thus set out to determine whether apical contractility plays a role during in vitro neural folding. […] The formation of an actomyosin gradient is followed by apical neural contraction which leads to folding.
To perturb ROCK/Shroom3 signaling and apical neural contractility a highly specific molecular inhibitor of ROCK (Y-27632) was applied. […] The effects of novobiocin and valproic acid were also examined. […] It was further concluded that the in vitro lumen model system is suitable for studying how abnormalities in signaling pathways lead to neural tube defects in a human genetic context.
Day 1. Seeding onto micropatterns. hPSCs are released from well-plate surfaces using non-enzymatic agitation following manufacturer's instructions (ReleSR, STEMCELL Technologies, Cambridge, MA). Cells are resuspended as a single-cell suspension at densities of 750K-1M cells/mL in mTeSR1 containing 10 μM ROCK inhibitor Y27632 (Abcam, Cambridge, UK). 200 μL of cell suspension is then pipetted onto prepatterned dishes and allowed to settle for 15 minutes before adding 1 mL of mTeSR1 and allowing cells to settle for 10 additional minutes. Excess media is aspirated, leaving enough liquid to cover patterns and replaced with fresh 2 mL of mTeSR until the following day.
Day 2. Matrigel addition. mTESR1 media is exchanged with a neural induction media containing Matrigel (4%, v/v). Neural induction media is supplemented with 5 μM of TGFβ-inhibitor SB-431542.
Day 3-4. Lumen Formation. Dishes are left unperturbed at day 3 to allow transition into 3D stem-cell tissue containing a single lumen.
Day 5-9. Exposure to Morphogens. Neural induction media is supplemented with 5 ng/ml BMP4 in addition to 5 μM of SB-431542. Media is exchanged daily. Cell fates are observed on day 6 and folding is observed during days 7-9.
All samples were fixed, immunostained and imaged as whole mounts in the culture dish. Samples are fixed in 4% PFA, 1 hr at room temperature (RT), washed three times for 15 min in PBS, and permeabilized in 1.5% Triton-PBS over-night (o/n) at 4 C. The following day, samples are washed in 0.3% Triton, and blocked for 2 hrs RT (10% NGS, 1% BSA, 0.3% Triton-X in PBS). Primary antibodies are used at 1:100-1:200 in blocking solution o/n at 4° C. Next, samples are washed in 0.1% Tween in PBS, and incubated with secondary antibodies 1:500-1:1000 in PBT o/n at 4° C. DAPI and phalloidin are also added at this stage. Finally, samples are washed in PBS for 1 hr, and imaged.
ROCK inhibition is achieved using the small molecule Y-27632 reconstituted in water at a stock concentration of 10 mM. ROCK inhibitor was applied at a concentration of 10 μM (1:1000 dilution) at day 5, together with BMP, and maintained for 72 hrs until the end of the experiment at day 8. Media was changed daily. Control experiments were carried under identical conditions, adding water instead of ROCK inhibitor.

[2] = tested on: 3D hPSC; assay: BMP4 exposure of micropatterned 3D hPSC without neural induction (immunostaining, qPCR); type: cell-based, human
From the text: FIG. 9 provides a schematic representing in vitro morphogenesis in three differentiation protocols in accordance with embodiments. (i) Exposure to BMP, without neural induction, results in an amnion-like tissue containing cells from three germ layers without formation of a neural fold. (ii) Neural tube morphogenesis is observed when neural induction is followed by exposure to BMP4. (iii) Homogenous expression of forebrain markers is observed under exposure to neural induction without BMP.
FIG. 10 provides a schematic and results of the experimental timeline for three protocols detailed in FIG. 9. (B) Experimental timeline for the three protocols. Neural induction media includes N2 supplement and TGFβ inhibitor SB-431542 (SB). (C) Vertical sections of immunostained samples from the three differentiation protocols.
FIG. 19 provides a schematic, images, and bar graph of cellular differentiation in the absences of neural induction in which no neural folding is observed, in accordance with embodiments. (A) Experimental timeline for BMP4 exposure without neural induction. (B) Bright field images showing development over 3 days. At day 4, cells migrate away from the micropatterned area. (C) Horizonal and (D) vertical sections of samples at day 3. Micropattern diameter is indicated in microns. Cells close to the glass express mesendoderm markers Brachyury (BRA) and SOX17. In 450 μm patterns, SOX2 is observed at the center of the tissue. Cells at the colony edges and at the top express amniotic ectoderm marker CDX2. A single lumen is maintained and no spontaneous folding is observed. (E) qPCR analysis for differentiation markers as a function of BMP concentration. BMP results in upregulation of the WNT and NODAL pathways, upregulation of mesendoderm markers EOMES/Brachyury/SOX17, amniotic ectoderm marker GATA3, downregulation of ectoderm marker SOX2 and pluripotency marker NANOG. Scale bar 50 μm unless indicated otherwise.
The system was next applied to study which tissues contribute to neural folding. This question has been studied for over a century in animal models, and multiple hypothesis have been developed regarding the mechanical role of the neural tissue, neighboring surface ectoderm and underlying mesoderm. However, the limited accessibility in utero led to inconclusive and often contradictive results. The in vitro system allows to systemically control tissue composition through the choice of small molecules in the culture media (FIGS. 9 & 10). This system allows discernment of the tissues which are necessary and sufficient for neural tube morphogens. […] Mesoderm fates are suppressed by TGFβ inhibition, and only appear if the period of TGFβ inhibition is decreased (FIG. 17). […] It was next examined whether the non-neural ectoderm is required for folding. […]

[3] = ROCK inhibition, Y-27632 10 μM day 5-8, vs control
[4] = as a function of BMP concentration, no neural induction

Row | Molecule | Shroom3 and F-actin localization to the apical neural surface [1, 3] | actin localization to the basal surface of epidermal/neural tissues and the epidermal apical surface [1, 3] | neural folding morphology ([1]; Y-27632 10 μM applied at day 5 together with BMP, maintained 72 hrs until day 8, vs control (water)) | neural apical curvature [1] | neural tissue morphology (thickness, hinges) [1] | cell fates and folding morphogenesis ([2]; addition of BMP4 without neural induction) | qPCR: WNT and NODAL pathways [2, 4] | qPCR: ectoderm marker SOX2 and pluripotency marker NANOG [2, 4] | qPCR: mesendoderm markers EOMES/Brachyury/SOX17, amniotic ectoderm marker GATA3 [2, 4]
1 | C[C@@H](N)[C@H]1CC[C@H](C(=O)Nc2ccncc2)CC1 [Y-27632] | disrupted | not significantly perturbed | severe folding defects similar to the open book morphology observed in embryonic cranial NTDs | significantly less curved than control samples | thick and flat neural tissue, which lacks neural hinges | – | – | – | –
2 | CO[C@@H]1[C@@H](OC(N)=O)[C@@H](O)[C@H](Oc2ccc3c(O)c(NC(=O)c4ccc(O)c(CC=C(C)C)c4)c(=O)oc3c2C)OC1(C)C [novobiocin] | – | – | – | significantly less curved than control samples | thick and flat neural tissue, which lacks neural hinges | – | – | – | –
3 | CCCC(CCC)C(=O)O [valproic acid] | – | – | – | significantly less curved than control samples | thick and flat neural tissue, which lacks neural hinges | – | – | – | –
4 | BMP4: bone morphogenetic protein 4, morphogen | – | – | – | – | – | mesoderm and ectoderm cell fates, but lack neural tissue and does not exhibit folding | upregulation | downregulation | upregulation
